Series [1] can be described thus: MTT cell proliferation assay, ZR-75-1. It counts as cell-based. The settings on record: human, ZR-75-1 cells, concentration causing 50% cell death of initial cell count over 24 hours, 1% DMSO. On the procedure:
(§1) The antitumor activities of the compounds of the invention were evaluated by a cellular proliferation assay. The MTT [3-(4,5-dimethylthiazol-2-yl)-2,5-diphenyltetrazolium bromide] cell proliferation assay, first described by Mosmann (Mosmann T., “Rapid colorimetric assay for cellular growth and survival: application to proliferation and cytotoxicity assays,” J. Immunol. Methods 1983 Dec. 16; 65(1-2):55-63, and incorporated by reference in its entirety) is based on the ability of active mitochondrial reductase enzymes from viable cells to cleave the tetrazolium rings of the pale yellow MTT. The cleavage reaction form a purple formazan crystals which is largely impermeable to cell membranes resulting in its accumulation within healthy cells. Solubilisation of the cells by addition of a detergent liberates and solubilizes the formazan crystals. The number of surviving cells is directly proportional to the level of the formazan product created. The color can then be quantified spectrophotometrically. The production of purple formazan in cells treated with a compound is measured relative to the production in control cells, and dose-response curves can be generated. This assay measures the cell proliferation rate and conversely, when metabolic events lead to apoptosis or necrosis, the reduction in cell viability, thus also allowing the evaluation of the cytotoxicity of the analogues synthesized in the laboratory.
(§2) For Tables 3 and 4, the assays were performed with 1% DMSO. The abbreviation “n.d.” means “not determined.” The values EC50, CC50, and SI have the following definitions.
(§3) Cell growth equals total cell count without any inhibitor after 72 hours minus initial cell count. Total cell counts after 72 hrs of growth range from 230 to 346% of initial cell counts depending on the cell line.
(§4) Total cell counts after 24 hrs of growth range from 103 to 109% of initial cell counts depending on the cell line.
(§5) SI: Selectivity Index is the ratio CC50/EC50.
For orientation: Tetrazolium assays rely on reduction of a dye to a coloured formazan, in cell work by metabolically active cells.

In a further series the test system is ZR-75-1. The experiment in a line: MTT cell proliferation assay, ZR-75-1. It counts as cell-based. The settings on record: Homo sapiens, ZR-75-1, 72 h, concentration reducing cell growth by 50% after 72 hours, 1% DMSO. As for the experimental part:
as §1, §2, §3, §4, §5

Series [2] is described as follows: MTT cell proliferation assay, PFSK-1. Format: cell-based. The settings on record: human, PFSK-1 cells, concentration causing 50% cell death of initial cell count over 24 hours, 1% DMSO. As for the experimental part: (§6) The antitumor activities of the compounds of the invention were evaluated by a cellular proliferation assay. […] The cleavage reaction form a purple formazan crystals which is largely impermeable to cell membranes resulting in its accumulation within healthy cells. Solubilisation of the cells by addition of a detergent liberates and solubilizes the formazan crystals. The number of surviving cells is directly proportional to the level of the formazan product created. The color can then be quantified spectrophotometrically. The production of purple formazan in cells treated with a compound is measured relative to the production in control cells, and dose-response curves can be generated. This assay measures the cell proliferation rate and conversely, when metabolic events lead to apoptosis or necrosis, the reduction in cell viability, thus also allowing the evaluation of the cytotoxicity of the analogues synthesized in the laboratory.
as §2
(§7) Cell growth equals total cell count without any inhibitor after 72 hours minus initial cell count.
as §5

The test system of a further series is PFSK-1. The series can be described thus: MTT cell proliferation assay, PFSK-1. It counts as cell-based. The settings on record: Homo sapiens, PFSK-1, 72 h, concentration reducing cell growth by 50% after 72 hours, 1% DMSO. As for the experimental part: as §6, §2, §7, §5
Series [3] is described as follows: in vitro. The note with it: human, NCI H2052 cells.
Series [4] deals with Thermotoga maritima thymidine kinase (Thermotoga maritima, UniProt Q9WYN2). The series can be described thus: Phosphorylation assay (spectrophotometric coupled-enzyme), T. maritima TK. It counts as biochemical. The note with it: substrate at 100 μM, 37° C., 1 mM ATP, triplicate. On the procedure: Compounds of the invention were also tested in a phosphorylation assay using three deoxynucleoside kinases. The kinases include human dCK, which is responsible for the activation of numerous nucleoside analog prodrugs; Drosophila melanogaster dNK, which is the fastest known kinases with the broadest substrate specificity profile; and Thermotoga maritima thymidine kinase, which is a good surrogate for human thymidine kinase 1, a member of the distinct type II kinase subfamily. The compounds were at substrate concentration of 100 μM.
Kinetic assay. Substrate phosphorylation was determined using a spectrophotometric coupled-enzyme assay (Munch-Petersen et al. (2000) J. Biol. Chem. vol. 275p. 66′73-66′79; Schelling et al. (2001) Anal. Biochem vol. 295 p. 82-8′7). Briefly, the individual nucleosides at 100 μM were prepared in reaction buffer containing 50 mM Tris-HCl (pH 7.5), 0.1 M KCl, 5 mM MgCl2, 1 mM DTT, 1 mM ATP, 0.21 mM phosphoenolpyruvate, 0.18 mM NADH, and 2 units/ml pyruvate kinase and 2 units/ml lactate dehydrogenase (Roche Biochemicals, Indianapolis, Ind.). Assays were performed at 37° C. by measuring the absorbance change at 340 nm. The enzyme amount was adjusted to limit NADH turnover to 10% over the time of the experiment. All experiments were performed in triplicate.

Series [5] can be described thus: in vitro. The note with it: human, NCI H1395 cells.
Series [6] concerns the target T1, Drosophila melanogaster dNK (Drosophila melanogaster, UniProt Q9XZT6).
T1 sequence (Q9XZT6 1-250): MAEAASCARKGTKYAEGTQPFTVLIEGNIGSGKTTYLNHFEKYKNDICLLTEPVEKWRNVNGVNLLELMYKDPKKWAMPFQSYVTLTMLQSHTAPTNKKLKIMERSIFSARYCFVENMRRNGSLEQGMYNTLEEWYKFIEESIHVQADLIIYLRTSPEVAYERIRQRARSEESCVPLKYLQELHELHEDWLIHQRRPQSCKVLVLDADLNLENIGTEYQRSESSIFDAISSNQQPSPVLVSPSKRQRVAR
The experiment in a line: Phosphorylation assay (spectrophotometric coupled-enzyme), D. melanogaster dNK. Format: biochemical. The note with it: substrate at 100 μM, 37° C., 1 mM ATP, triplicate. As for the experimental part:
Compounds of the invention were also tested in a phosphorylation assay using three deoxynucleoside kinases. […] The compounds were at substrate concentration of 100 μM.
Kinetic assay. […] Briefly, the individual nucleosides at 100 μM were prepared in reaction buffer containing 50 mM Tris-HCl (pH 7.5), 0.1 M KCl, 5 mM MgCl2, 1 mM DTT, 1 mM ATP, 0.21 mM phosphoenolpyruvate, 0.18 mM NADH, and 2 units/ml pyruvate kinase and 2 units/ml lactate dehydrogenase (Roche Biochemicals, Indianapolis, Ind.). Assays were performed at 37° C. by measuring the absorbance change at 340 nm. The enzyme amount was adjusted to limit NADH turnover to 10% over the time of the experiment. All experiments were performed in triplicate.

Series [7] is described as follows: in vitro. The note with it: human, MOLT-4 cells.

The CC50 is the concentration at which the toxic effect on the cells reaches its halfway point. Low values mean harm at low concentration, high ones better tolerance by the cells. The term EC50 denotes the concentration needed to bring the measured effect to its halfway point. Low readings indicate an effect from little substance, high ones a need for much substance.

Sequence of Thermotoga maritima thymidine kinase (Q9WYN2 whole entry): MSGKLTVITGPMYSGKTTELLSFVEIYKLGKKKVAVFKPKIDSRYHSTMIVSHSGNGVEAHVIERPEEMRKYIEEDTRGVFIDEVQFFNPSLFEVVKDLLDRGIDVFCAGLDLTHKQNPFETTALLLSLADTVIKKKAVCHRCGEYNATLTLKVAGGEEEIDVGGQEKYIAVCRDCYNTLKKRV

As to `COC(=O)C1(C)C[C@@H](n2cc(C)c(=O)[nH]c2=O)O[C@@H]1CO` (mixture of isomers) [LCB-1001], the CC50 at 24 h was more than 500 µM in series [1], more than 500 µM in [2], 295 µM in “in vitro [3]” and more than 500 µM in the series “in vitro [5]”. In addition, the EC50 in the series on ZR-75-1 and in the series on PFSK-1 was more than 500 µM each time. For the same compound, in series [4], the “T. maritima TK substrate phosphorylation” value is on record as <1 10^−3 μmol/min mg. For the same compound, the “D. melanogaster dNK substrate phosphorylation” value in [6] is <0.1 10^6 μmol/min mg.

`COC(=O)C1(C)C[C@@H](n2ccc(=O)[nH]c2=O)O[C@@H]1CO` (mixture of isomers) [LCB-1002]: the 50% cytotoxic concentration (CC50) at 24 h is more than 500 µM in series [1], more than 500 µM in series [2], 423 µM in the series “in vitro [3]” and 493 µM in “in vitro [5]”. In addition, the EC50 with ZR-75-1 and in the series on PFSK-1 was more than 500 µM each time. In addition, the “T. maritima TK substrate phosphorylation” value in [4] is on record as 2.2 10^−3 μmol/min mg. Moreover, in series [6], the “D. melanogaster dNK substrate phosphorylation” value is given as <0.1 10^6 μmol/min mg.

`Cc1cn([C@@H]2CC(C)(CO)[C@@H](CO)O2)c(=O)[nH]c1=O` (mixture of isomers) [LCB-1004-2]: the “T. maritima TK substrate phosphorylation” value in series [4] is <1 10^−3 μmol/min mg. The “D. melanogaster dNK substrate phosphorylation” value in [6] is given as 3.7 10^6 μmol/min mg.

In the case of `Cc1cn([C@@H]2CC(C)(CO)[C@@H](CO)O2)c(=O)[nH]c1=O` (mixture of isomers) [LCB-1004], the CC50 at 24 h (in series [1]; in series [2]; in “in vitro [3]”; in “in vitro [5]”) was more than 500 µM throughout. The EC50 with ZR-75-1 is 420 µM; with PFSK-1, more than 500 µM. Moreover, in series [4] (listed as LCB-1004-1), the “T. maritima TK substrate phosphorylation” value is listed as 4.1 10^−3 μmol/min mg. Also, the “D. melanogaster dNK substrate phosphorylation” value in series [6] (listed as LCB-1004-1) is on record as 4.2 10^6 μmol/min mg.

For `COC(=O)C1(C)C[C@H](n2ccc(=O)[nH]c2=O)O[C@@H]1CO` (mixture of isomers) [LCB-1005], the CC50 at 24 h (in series [1]; in series [2]; in the series “in vitro [3]”; in the series “in vitro [5]”) was more than 500 µM in each case. Besides, the EC50 with ZR-75-1 and with PFSK-1 was more than 500 µM throughout. Also, in [4], the “T. maritima TK substrate phosphorylation” value is reported as <1 10^−3 μmol/min mg. For the same compound, the “D. melanogaster dNK substrate phosphorylation” value in series [6] is given as <0.1 10^6 μmol/min mg.

Regarding `CC1(CO)C[C@H](n2ccc(=O)[nH]c2=O)O[C@@H]1CO` (mixture of isomers) [LCB-1006], the CC50 at 24 h (in [1]; in series [2]; in the series “in vitro [3]”; in “in vitro [5]”) was more than 500 µM in each case. The EC50 in the series with ZR-75-1 and with PFSK-1 was more than 500 µM each time. In series [4], the “T. maritima TK substrate phosphorylation” value was 2.7 10^−3 μmol/min mg. The “D. melanogaster dNK substrate phosphorylation” value in series [6] is 0.22 10^6 μmol/min mg.

On to `Cc1cn([C@H]2CC(C)(CO)[C@@H](CO)O2)c(=O)[nH]c1=O` (mixture of isomers) [LCB-1007-2], for which the “T. maritima TK substrate phosphorylation” value in series [4] was 2.2 10^−3 μmol/min mg. Besides, in series [6], the “D. melanogaster dNK substrate phosphorylation” value is 0.74 10^6 μmol/min mg.

For the compound `Cc1cn([C@H]2CC(C)(CO)[C@@H](CO)O2)c(=O)[nH]c1=O` (mixture of isomers) [LCB-1007], the CC50 at 24 h (in series [1]; in series [2]; in the series “in vitro [3]”; in the series “in vitro [5]”) was more than 500 µM each time. The results for the 50% effective concentration (EC50) in the series with ZR-75-1 and in the series with PFSK-1 were 460 µM and more than 500 µM, respectively. In series [4], the “T. maritima TK substrate phosphorylation” value is recorded as 2.2 10^−3 μmol/min mg. Further, in series [6] (listed as LCB-1007-1), the “D. melanogaster dNK substrate phosphorylation” value is on record as 0.84 10^6 μmol/min mg.

For `CC1(CO)C[C@@H](n2ccc(=O)[nH]c2=O)O[C@@H]1CO` (mixture of isomers) [LCB-1008], the CC50 at 24 h (in [1]; in series [2]; in “in vitro [3]”; in the series “in vitro [5]”) was more than 500 µM throughout. Besides, the half-maximal effective concentration (EC50) with ZR-75-1 and in the series on PFSK-1 was more than 500 µM in each case. Moreover, the “T. maritima TK substrate phosphorylation” value in [4] was <1 10^−3 μmol/min mg. Moreover, the “D. melanogaster dNK substrate phosphorylation” value in series [6] is 0.36 10^6 μmol/min mg.

Turning to `COC(=O)C1(C)C[C@H](n2cc(C)c(=O)[nH]c2=O)O[C@@H]1CO` (mixture of isomers) [LCB-1009-2], in series [4], the “T. maritima TK substrate phosphorylation” value is 4.9 10^−3 μmol/min mg. Further, in [6], the “D. melanogaster dNK substrate phosphorylation” value is listed as 3.44 10^6 μmol/min mg.

For `COC(=O)C1(C)CC(n2cc(C)c(=O)[nH]c2=O)OC1CO` (racemic) [LCB-1010-2, (±) methyl 2-(hydroxymethyl)-3-methyl-5-(5-methyl-2,4-dioxo-3,4-dihydropyrimidin-1(2H)-yl)tetrahydrofuran-3-carboxylate], the “T. maritima TK substrate phosphorylation” value in series [4] is recorded as 5.6 10^−3 μmol/min mg. Further, in series [6], the “D. melanogaster dNK substrate phosphorylation” value is recorded as 2.13 10^6 μmol/min mg.

Consider `COC(=O)C1(C)C[C@H](n2cc(F)c(=O)[nH]c2=O)O[C@@H]1CO` (mixture of isomers) [LCB-1023, 5-(5-Fluoro-2,4-dioxo-3,4-dihydro-2H-pyrimidin-1-yl)-2-hydroxymethyl-3-methyl-tetrahydro-furan-3-carhoxylic acid methyl ester], for which the “T. maritima TK substrate phosphorylation” value in series [4] (listed as LCB-1023-1) was 2.1 10^−3 μmol/min mg. In addition, the “D. melanogaster dNK substrate phosphorylation” value in series [6] (listed as LCB-1023-1) was 0.33 10^6 μmol/min mg.

`Cc1cn([C@H]2CC(C)(CO)[C@@H](CO)O2)c(=O)[nH]c1=O` (mixture of isomers) [LCB-1032, (±) 1-(-4,5-bis(hydroxymethyl)-4-methyltetrahydrofuran-2-yl)-5-methylpyrimidine-2,4(1H,3H)-dione] had a CC50 at 24 h in “in vitro [7]” of more than 500 µM.

Take `Cc1cn([C@H]2C[C@H](O)[C@@H](CO)O2)c(=O)[nH]c1=O` [Thymidine, reference compound]: the “T. maritima TK substrate phosphorylation” value in [4] is on record as 830 10^−3 μmol/min mg.

Values taken from patent US8361988B2, “Nucleoside and nucleotide analogues with quaternary carbon centers and methods of use” (Institut de Recherches Cliniques de Montreal, priority 2007, dated 2013).
